This is an account of results in US8883782B2, “Spiro-tetracyclic ring compounds as beta-secretase modulators and methods of use” (Amgen Inc., priority 2010, dated 2014).

The test system of assay [1] is Aβ40 in conditioned medium of cells stably expressing Amyloid Precursor Protein (APP). The assay can be described thus: In vitro BACE cell-based assay (Aβ40 in conditioned medium, sandwich ELISA). To be noted: Homo sapiens, read-out: HEK cell assay. An outline of the steps: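 Secreted Aβ40 is captured with pAb40 and detected with biotinylated 6E10, read by europium time-resolved fluorescence. IC50 comes from percent inhibition versus concentration.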

The target of assay [2] is Beta Secretase enzyme (BACE) (Homo sapiens, UniProt P56817). Put plainly: In vitro enzymatic BACE FRET (fluorescence resonance energy transfer) assay. It counts as biochemical. To be noted: average IC50, enzyme assay; read-out: BACE 1 FRET assay. Put shortly: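 Fluorescence read after Tris quench to neutral pH. Reaction: 50 nM fluorophore/quencher peptide substrate, 1 h, in 0.05 M acetate pH 4.2, 10% DMSO final, 100 uM genapol.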
Beta Secretase enzyme (BACE), sequence (P56817 46-501, species assumed): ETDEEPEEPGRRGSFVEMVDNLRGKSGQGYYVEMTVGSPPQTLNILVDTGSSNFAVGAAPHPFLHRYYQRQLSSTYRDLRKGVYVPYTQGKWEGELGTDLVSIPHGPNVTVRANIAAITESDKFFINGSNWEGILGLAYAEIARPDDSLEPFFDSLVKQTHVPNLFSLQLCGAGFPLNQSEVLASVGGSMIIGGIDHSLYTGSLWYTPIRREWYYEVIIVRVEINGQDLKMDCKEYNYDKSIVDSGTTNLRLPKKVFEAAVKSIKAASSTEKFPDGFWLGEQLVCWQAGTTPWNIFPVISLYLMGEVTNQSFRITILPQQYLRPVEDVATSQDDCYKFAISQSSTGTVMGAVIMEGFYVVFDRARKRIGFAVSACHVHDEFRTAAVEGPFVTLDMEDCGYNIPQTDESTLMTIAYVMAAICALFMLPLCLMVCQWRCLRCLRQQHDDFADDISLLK

The mark [3] stands for this setting: HEK293, average IC50, HEK cells.

Read-outs that look alike come from different tables or passages of the source.

`COc1cc(F)c2c(c1)[C@]1(COC(N)=N1)c1cc(-c3cncc(C#CC4(C)COC4)c3)ccc1O2` [Example 821, (4S)-4′-fluoro-2′-methoxy-7′-(5-((3-methyl-3-oxetanyl)ethynyl)-3-pyridinyl)spiro[1,3-oxazole-4,9′-xanthen]-2-amine]: the IC50 in assay [1] (HEK293, average IC50) came out at 2900 nM; in assay [2], 51.4 nM.
Taken in the same sequence, the figures for `Cc1nc(F)ccc1-c1ccc2c(c1)[C@@]1(COC(N)=N1)c1cc(-c3ccnc(F)c3)ncc1O2` [Example 252, (5S)-7-(6-fluoro-2-methyl-3-pyridinyl)-3-(2-fluoro-4-pyridinyl)spiro[chromeno[2,3-c]pyridine-5,4′-[1,3]oxazol]-2′-amine] were 548 nM and 66.1 nM.
On to `CC(C)(C)COc1ccc2c(c1)[C@]1(COC(N)=N1)c1cc(C3=CCCOC3)ccc1O2` [Example 910, (4S)-2′-(5,6-dihydro-2H-pyran-3-yl)-7′-(2,2-dimethylpropoxy)spiro[1,3-oxazole-4,9′-xanthen]-2-amine], for which the IC50 in assay [1] (setting [3]) came out at 1770 nM; in assay [2], 22.3 nM.
Taken in the same sequence, the figures for `NC1=N[C@]2(CO1)c1cc(-c3cccnc3F)ccc1Oc1nc(F)ccc12` [Example 485, (5R)-2-fluoro-7-(2-fluoro-3-pyridinyl)spiro[chromeno[2,3-b]pyridine-5,4′-[1,3]oxazol]-2′-amine] were 852 nM and 175 nM.
The matching figures for `CC(C)(C)COc1cc2c(cn1)Oc1ccc(-c3cccnc3F)cc1[C@]21COC(N)=N1` [Example 610, (5R)-3-(2,2-dimethylpropoxy)-7-(2-fluoro-3-pyridinyl)spiro[chromeno[2,3-c]pyridine-5,4′-[1,3]oxazol]-2′-amine]: 1130 nM and 116 nM.
`CC1(C#Cc2cc3c(cc2OC(F)(F)F)Oc2ccc(-c4cccnc4F)cc2[C@]32COC(N)=N2)COC1` [Example 987, (4R)-7′-(2-fluoro-3-pyridinyl)-2′-((3-methyl-3-oxetanyl)ethynyl)-3′-(trifluoromethoxy)spiro[1,3-oxazole-4,9′-xanthen]-2-amine]: the IC50 in assay [1] (HEK293, average IC50) is ≥ 10000 nM; in assay [2] it was 4630 nM.
For `Cc1ccnn1-c1cc(F)c2c(c1)[C@]1(COC(N)=N1)c1cc(-c3cccnc3)ccc1O2` [Example 634, (4S)-4′-fluoro-2′-(5-methyl-1H-pyrazol-1-yl)-7′-(3-pyridinyl)spiro[1,3-oxazole-4,9′-xanthen]-2-amine], the values for the IC50 in assay [1] (setting [3]) and in assay [2] were 154 nM and 30.3 nM, respectively.
Taken in the same sequence, the figures for `COc1cc(-c2cc3c(cn2)Oc2ccc(-c4cccc(Cl)c4)cc2[C@@]32COC(N)=N2)ccc1F` [Example 538, (5S)-7-(3-chlorophenyl)-3-(4-fluoro-3-methoxyphenyl)spiro[chromeno[2,3-c]pyridine-5,4′-[1,3]oxazol]-2′-amine] were 583 nM and 5.2 nM.
For the compound `CC(C)(C#N)COc1cc2c(c(F)c1F)Oc1ccc(-c3cccnc3)cc1[C@@]21COC(N)=N1` [Example 1009, 3-(((4S)-2-amino-3′,4′-difluoro-7′-(3-pyridinyl)spiro[1,3-oxazole-4,9′-xanthen]-2′-yl)oxy)-2,2-dimethylpropanenitrile], the IC50 in assay [1] (HEK293, average IC50) came out at 32 nM; in assay [2] it was 1.7 nM.
Regarding `COc1cc(F)c2c(c1)[C@@]1(COC(N)=N1)c1cc(-c3cncnc3)c(F)cc1O2` [Example 555, (4R)-3′,5′-difluoro-7′-methoxy-2′-(5-pyrimidinyl)spiro[1,3-oxazole-4,9′-xanthen]-2-amine], the figures for the IC50 in assay [1] (setting [3]) and in assay [2] were 1700 nM and 290 nM, respectively.
The matching figures for `CNC(=O)c1ccc(F)c(-c2ccc3c(c2)[C@@]2(COC(N)=N2)c2cc(C4=CCOCC4)cnc2O3)c1` [Example 500, 3-((5S)-2′-amino-3-(3,6-dihydro-2H-pyran-4-yl)spiro[chromeno[2,3-b]pyridine-5,4′-[1,3]oxazol]-7-yl)-4-fluoro-N-methylbenzamide]: 36.8 nM and 11.7 nM.
On to `NC1=N[C@@]2(CO1)c1cc(-c3cccnc3F)ccc1Oc1c(F)cc(-c3cncnc3)cc12` [Example 214, (4S)-4′-fluoro-7′-(2-fluoro-3-pyridinyl)-2′-(5-pyrimidinyl)spiro[1,3-oxazole-4,9′-xanthen]-2-amine], for which the IC50 in assay [1] (HEK293, average IC50) stood at 18.7 nM; in assay [2], 2.8 nM.
As to `CC#Cc1cncc(-c2ccc3c(c2)[C@@]2(CSC(N)=N2)c2cc(C4=CCOCC4)cnc2O3)c1` [Example 772, (5S)-3-(3,6-dihydro-2H-pyran-4-yl)-7-(5-(1-propyn-1-yl)-3-pyridinyl)spiro[chromeno[2,3-b]pyridine-5,4′-[1,3]thiazol]-2′-amine], the IC50 in assay [1] (HEK293, average IC50) was found to be 2 nM; in assay [2] it was 0.5 nM.
On to `COc1ccc2c(c1)[C@@]1(COC(N)=N1)c1cc(N3CCN(C)C(C)(C)C3)cc(F)c1O2` [Example 532, (4S)-4′-fluoro-7′-methoxy-2′-(3,3,4-trimethyl-1-piperazinyl)spiro[1,3-oxazole-4,9′-xanthen]-2-amine], for which the IC50 is 169 nM in assay [1] (setting [3]) and 2370 nM in assay [2].
Taken in the same sequence, the figures for `CC(C)N(C)c1cc2c(cn1)Oc1ccc(-c3cccnc3)cc1[C@@]21COC(N)=N1` [Example 435, (5S)-N~3~-methyl-N~3~-(1-methylethyl)-7-(3-pyridinyl)spiro[chromeno[2,3-c]pyridine-5,4′-[1,3]oxazole]-2′,3-diamine] were 29.6 nM and 5.6 nM.
`NC1=N[C@]2(CO1)c1cc(-c3cccnc3F)ccc1Oc1c2cc(C2=CCOCC2)c(F)c1F` [Example 1010, (4R)-2′-(3,6-dihydro-2H-pyran-4-yl)-3′,4′-difluoro-7′-(2-fluoro-3-pyridinyl)spiro[1,3-oxazole-4,9′-xanthen]-2-amine]: the IC50 in assay [1] (HEK293, average IC50) came to 647 nM; in assay [2], 9.4 nM.
Taken in the same sequence, the figures for `COc1cc2c(c(F)c1F)Oc1ccc(-c3cccnc3F)cc1[C@@]21COC(N)=N1` [Example 1005, (4S)-3′,4′-difluoro-7′-(2-fluoro-3-pyridinyl)-2′-methoxyspiro[1,3-oxazole-4,9′-xanthen]-2-amine] were 1000 nM and 5.8 nM.
Take `Cc1nn(C)cc1-c1cccc(-c2ccc3c(c2)[C@@]2(COC(N)=N2)c2cc(C4=CCOCC4)ncc2O3)c1` [Example 255, (5S)-3-(3,6-dihydro-2H-pyran-4-yl)-7-(3-(1,3-dimethyl-1H-pyrazol-4-yl)phenyl)spiro[chromeno[2,3-c]pyridine-5,4′-[1,3]oxazol]-2′-amine]: the IC50 in assay [1] (HEK293, average IC50) was 565 nM; in assay [2] it was 22.3 nM.
As to `CC(C)(C#N)COc1cc(F)c2c(c1)[C@]1(COC(N)=N1)c1cc(-c3cncc(Cl)c3)ccc1O2` [Example 204, 3-(((4S)-2-amino-7′-(5-chloro-3-pyridinyl)-4′-fluorospiro[1,3-oxazole-4,9′-xanthen]-2′-yl)oxy)-2,2-dimethylpropanenitrile], the IC50 worked out at 4.5 nM in assay [1] (HEK293, average IC50) and 0.5 nM in assay [2].
Taken in the same sequence, the figures for `NC1=N[C@@]2(CO1)c1cc(Oc3ccc(Cl)cn3)ccc1Oc1c(F)cc(C3=CCOCC3)cc12` [Example 1066, (4S)-7′-((5-chloro-2-pyridinyl)oxy)-2′-(3,6-dihydro-2H-pyran-4-yl)-4′-fluorospiro[1,3-oxazole-4,9′-xanthen]-2-amine] were 1970 nM and 52.6 nM.
Turning to `NC1=N[C@@]2(CO1)c1cc(-c3cccnc3F)ccc1Oc1c2cc(C2=CCCCO2)nc1F` [Example 657, (5S)-3-(3,4-dihydro-2H-pyran-6-yl)-1-fluoro-7-(2-fluoro-3-pyridinyl)spiro[chromeno[2,3-c]pyridine-5,4′-[1,3]oxazol]-2′-amine], the IC50 in assay [1] (setting [3]) is 5 nM; in assay [2], 0.4 nM.
As for `C[C@H]1COCCN1c1cc(F)c2c(c1)[C@]1(CSC(N)=N1)c1cc(-c3cccnc3F)ccc1O2` [Example 1082, (4S)-4′-fluoro-7′-(2-fluoro-3-pyridinyl)-2′-((3S)-3-methyl-4-morpholinyl)spiro[1,3-thiazole-4,9′-xanthen]-2-amine], the IC50 in assay [1] (HEK293, average IC50) came out at 4 nM; in assay [2] it was 0.3 nM.
In the case of `NC1=N[C@@]2(CO1)c1cc(-c3cncc(F)c3)ccc1Oc1c(F)cc(N3CCOCC3)cc12` [Example 277, (4S)-4′-fluoro-7′-(5-fluoro-3-pyridinyl)-2′-(4-morpholinyl)spiro[1,3-oxazole-4,9′-xanthen]-2-amine], the IC50 stood at 6.4 nM in assay [1] (HEK293, average IC50) and 1.5 nM in assay [2].
As to `Cc1ccn(-c2cnc3c(c2)[C@]2(COC(N)=N2)c2cc(-c4cccnc4F)ccc2O3)n1` [Example 1021, (5S)-7-(2-fluoro-3-pyridinyl)-3-(3-methyl-1H-pyrazol-1-yl)spiro[chromeno[2,3-b]pyridine-5,4′-[1,3]oxazol]-2′-amine], the IC50 in assay [1] (HEK293, average IC50) stood at 119 nM; in assay [2] it was 3.5 nM.
Taken in the same sequence, the figures for `NC1=N[C@@]2(CO1)c1cc(-c3cnccn3)ccc1Oc1c(F)cc(N3C[C@@H]4C[C@H]3CO4)cc12` [Example 268, (4S)-4′-fluoro-2′-((1S,4S)-2-oxa-5-azabicyclo[2.2.1]hept-5-yl)-7′-(2-pyrazinyl)spiro[1,3-oxazole-4,9′-xanthen]-2-amine] were 26.1 nM and 10.5 nM.
Regarding `NC1=N[C@@]2(CO1)c1cc(-c3cncc(F)c3)ccc1Oc1c(F)cc(C3=CCOCC3)cc12` [Example 447, (4S)-2′-(3,6-dihydro-2H-pyran-4-yl)-4′-fluoro-7′-(5-fluoro-3-pyridinyl)spiro[1,3-oxazole-4,9′-xanthen]-2-amine], the values for the IC50 in assay [1] (setting [3]) and in assay [2] were 5.1 nM and 1.1 nM, respectively.
